Results on eight molecules are retold here after ChEMBL document CHEMBL1201862, “PubChem BioAssay data set” (2004).

Some test systems named below: HCT-116; IGROV-1; A549; CCRF-CEM; MDA-N; NCI-H226; SK-MEL-28; SNB-75; U-251; BT-549; T47D; EKVX; UACC-257; UACC-62; NCI-H460; MDA-MB-435; RPMI-8226; SR; SNB-19; LOX IMVI.
Common to all, as to test: NCI tumour cell line growth inhibition, 48 h

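Five concentrations, 48 hours, 96-well plates. The concentration for 50% growth inhibition is given as GI50.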 Activity calls are given as the source filed them. No stated cut-off is given here; in the data, active = GI50 up to about 1.1 µM and inactive = higher. Bounds are passed on as bounds.

As to `O=C(O)c1cc(O)c2c(c1)Cc1cccc(O)c1C2=O`, the GI50 was 23.9 µM (inactive) in the experiment with HCT-116; > 10 µM (inactive) with IGROV-1; 31.4 µM (inactive) in the experiment on A549; 29.4 µM (inactive) in the experiment on CCRF-CEM; > 10 µM (inactive) with MDA-N; 24.1 µM (inactive) with NCI-H226. Further, the GI50 is 34.1 µM (inactive) in the experiment with SK-MEL-28; 14.1 µM (inactive) in the experiment with SNB-75; 17.6 µM (inactive) in the experiment on U-251; 30.5 µM (inactive) in the experiment on BT-549; 38.6 µM (inactive) in the experiment with T47D; 22.1 µM (inactive) in the experiment with EKVX. The GI50 in the experiment with UACC-257 was 26.7 µM (inactive); in the experiment on UACC-62, 19.1 µM (inactive); with NCI-H460, 23.3 µM (inactive); in the experiment on MDA-MB-435 it was 33.6 µM (inactive); in the experiment with RPMI-8226, 21.9 µM (inactive); in the experiment on SR, 26.1 µM (inactive). Besides, the GI50 in the experiment on SNB-19 is 28.6 µM (inactive).
`C=CC(Br)(CBr)CCC(Br)C(C)(C)Cl` (stereo unspecified): the GI50 is 1.64 µM (inactive) in the experiment on HCT-116; 5.31 µM (inactive) with IGROV-1; 11.5 µM (inactive) in the experiment with A549; 2.22 µM (inactive) with CCRF-CEM; 3.09 µM (inactive) in the experiment with MDA-N; 25.3 µM (inactive) in the experiment with NCI-H226. The GI50 with SK-MEL-28 was 2.36 µM (inactive); in the experiment with SNB-75, 2.71 µM (inactive); in the experiment with U-251, 1.53 µM (inactive); with BT-549, 6.52 µM (inactive); with T47D, 1.67 µM (inactive); with EKVX, 8.18 µM (inactive). Also, the GI50 with UACC-257 was 3.87 µM (inactive); in the experiment on UACC-62, 4.78 µM (inactive); in the experiment with NCI-H460, 2.21 µM (inactive); in the experiment on MDA-MB-435 it was 2.3 µM (inactive); in the experiment on RPMI-8226, 0.579 µM (active); with SR it was 1.66 µM (inactive). Further, the GI50 with SNB-19 was 1.71 µM (inactive).
As for `Clc1cc2c(cc1Cl)CC(NCCN1CCCC1)CC2` (stereo unspecified), the GI50 with HCT-116 was 12.9 µM (inactive); with IGROV-1, 15.4 µM (inactive); in the experiment on A549, 14.8 µM (inactive); with CCRF-CEM it was 26.4 µM (inactive); with MDA-N, 3.85 µM (inactive); with LOX IMVI, 13.3 µM (inactive). In addition, the GI50 was 15.2 µM (inactive) with NCI-H226; 10.2 µM (inactive) in the experiment with SK-MEL-28; 15.9 µM (inactive) with U-251; 15 µM (inactive) in the experiment with BT-549; 10.4 µM (inactive) in the experiment on T47D; 18.7 µM (inactive) with EKVX. The GI50 in the experiment on UACC-257 was 7.82 µM (inactive); in the experiment with UACC-62, 2.87 µM (inactive); in the experiment on NCI-H460, 16.4 µM (inactive); in the experiment on MDA-MB-435, 3.73 µM (inactive); in the experiment on RPMI-8226, 12.6 µM (inactive); in the experiment with SR it was 10.6 µM (inactive). Besides, the GI50 in the experiment on SNB-19 is 20.5 µM (inactive).
In the case of `CN(N=O)c1ccc(/C=C/c2ccnc3ccccc23)cc1`, the GI50 in the experiment with HCT-116 is 34 µM (inactive); in the experiment on IGROV-1, 49 µM (inactive); in the experiment on A549 it was 41.6 µM (inactive); in the experiment on CCRF-CEM, 47.3 µM (inactive); in the experiment with MDA-N, 75.3 µM (inactive); with LOX IMVI it was 36.3 µM (inactive). Besides, the GI50 in the experiment with NCI-H226 was 47.8 µM (inactive); in the experiment with SK-MEL-28, > 100 µM (inactive); with SNB-75 it was 25.1 µM (inactive); with U-251, 54.8 µM (inactive); in the experiment on BT-549 it was > 100 µM (inactive); with T47D, 50.4 µM (inactive). Further, the GI50 was 26.4 µM (inactive) in the experiment with EKVX; 72.4 µM (inactive) with UACC-257; 50.7 µM (inactive) with UACC-62; 34.2 µM (inactive) with NCI-H460; > 100 µM (inactive) in the experiment on MDA-MB-435; 31.8 µM (inactive) in the experiment on SR. The GI50 in the experiment on SNB-19 was 46.5 µM (inactive).
For the molecule `O=C(c1ccccc1)c1ccc2[nH]c(-c3c(Cl)c(Cl)c(Cl)c(Cl)c3C(=O)N/N=C/c3cccc(Oc4ccccc4)c3)nc2c1`, the GI50 in the experiment on HCT-116 was 76.6 µM (inactive); with IGROV-1 it was > 100 µM (inactive); in the experiment on A549 it was > 100 µM (inactive); with CCRF-CEM, 39.6 µM (inactive); in the experiment with MDA-N it was 46.5 µM (inactive); with LOX IMVI, > 100 µM (inactive). Further, the GI50 in the experiment on NCI-H226 is 84.1 µM (inactive); with SK-MEL-28 it was > 100 µM (inactive); in the experiment on SNB-75, 60.8 µM (inactive); with U-251 it was 54.7 µM (inactive); with BT-549, 93.8 µM (inactive); with T47D it was 36.1 µM (inactive). The GI50 was > 100 µM (inactive) in the experiment on EKVX; > 100 µM (inactive) in the experiment with UACC-257; 38.1 µM (inactive) in the experiment with MDA-MB-435; > 100 µM (inactive) with RPMI-8226; 36.3 µM (inactive) with SR; 69.2 µM (inactive) with SNB-19.
Regarding `CC1=C(/C=C/C(C)=C/C=C/C(C)=C/C(=O)Nc2ccc(O)cc2)C(C)(C)CCC1` [FENRETINIDE], the GI50 in the experiment with HCT-116 was 4.06 µM (inactive); in the experiment on IGROV-1 it was 2.02 µM (inactive); in the experiment on A549, 5.97 µM (inactive); in the experiment with CCRF-CEM, 0.057 µM (active); in the experiment with MDA-N, 2.75 µM (inactive); with LOX IMVI, 1.74 µM (inactive). Also, the GI50 in the experiment on NCI-H226 was 5.13 µM (inactive); in the experiment with SK-MEL-28 it was 4.23 µM (inactive); with SNB-75, 7.03 µM (inactive); in the experiment on U-251, 4.65 µM (inactive); in the experiment with BT-549, 6.52 µM (inactive); in the experiment on T47D, 2.7 µM (inactive). The GI50 in the experiment with EKVX is 9.25 µM (inactive); with UACC-257 it was 9.71 µM (inactive); with UACC-62 it was 2.12 µM (inactive); in the experiment on NCI-H460 it was 4.63 µM (inactive); in the experiment with MDA-MB-435, 3.09 µM (inactive); in the experiment on RPMI-8226, 1.65 µM (inactive). The GI50 in the experiment on SNB-19 is 6.5 µM (inactive).
As for `Cc1ccc(C2=C(C#N)C(=O)N3CCN=C3S2)cc1`, the GI50 with HCT-116, in the experiment with IGROV-1, in the experiment on A549, in the experiment with CCRF-CEM, in the experiment on MDA-N and with LOX IMVI was > 100 µM (inactive) throughout. The GI50 in the experiment on NCI-H226, in the experiment on SK-MEL-28, in the experiment on SNB-75, in the experiment with U-251, in the experiment on BT-549 and in the experiment on T47D was > 100 µM (inactive) throughout. In addition, the GI50 in the experiment on EKVX, with UACC-257, with UACC-62, with NCI-H460, in the experiment with MDA-MB-435 and in the experiment with SR was > 100 µM (inactive) each time. Moreover, the GI50 in the experiment on SNB-19 was 70.3 µM (inactive).
In the case of `CC1OC(O[C@H]2CC[C@]3(C)[C@H]4CC=C5[C@@H]6[C@@H](C)[C@H](C)CC[C@]6(C(=O)OC6OC(CO)C(O)C(O)C6O)CC[C@@]5(C(=O)O)[C@]4(C)CC[C@H]3C2(C)C)C(O)C(O)C1O` (stereo partly specified), the GI50 with HCT-116, in the experiment with CCRF-CEM, in the experiment with MDA-N, in the experiment on LOX IMVI, in the experiment with SNB-75 and with U-251 was > 100 µM (inactive) in each case. For the same molecule, the GI50 in the experiment with BT-549, in the experiment with T47D, with UACC-257, with UACC-62, in the experiment on NCI-H460 and in the experiment with MDA-MB-435 was > 100 µM (inactive) throughout. Also, the GI50 in the experiment with SR and in the experiment with SNB-19 was > 100 µM (inactive) each time.
